By inhibition is commonly meant the relative decrease from the control value, in per cent. What is called IC50 is the concentration at which inhibition is half-maximal.

In patent publication US8735406B2, “8-oxodihydropurine derivative” (Dainippon Sumitomo Pharma Co., Ltd., priority 2009, dated 2014) one finds inhibition and IC50 data, which are given here for 18 molecules.

In the test the target is T1, FAAH (Rattus norvegicus, UniProt P97612).
T1 construct: Preparation of Rat Brain Membranes Preparations (FAAH Enzyme Solution); from tissue; host or cells: rat cerebrum (brain membrane preparation)
T1 sequence (P97612 1-579): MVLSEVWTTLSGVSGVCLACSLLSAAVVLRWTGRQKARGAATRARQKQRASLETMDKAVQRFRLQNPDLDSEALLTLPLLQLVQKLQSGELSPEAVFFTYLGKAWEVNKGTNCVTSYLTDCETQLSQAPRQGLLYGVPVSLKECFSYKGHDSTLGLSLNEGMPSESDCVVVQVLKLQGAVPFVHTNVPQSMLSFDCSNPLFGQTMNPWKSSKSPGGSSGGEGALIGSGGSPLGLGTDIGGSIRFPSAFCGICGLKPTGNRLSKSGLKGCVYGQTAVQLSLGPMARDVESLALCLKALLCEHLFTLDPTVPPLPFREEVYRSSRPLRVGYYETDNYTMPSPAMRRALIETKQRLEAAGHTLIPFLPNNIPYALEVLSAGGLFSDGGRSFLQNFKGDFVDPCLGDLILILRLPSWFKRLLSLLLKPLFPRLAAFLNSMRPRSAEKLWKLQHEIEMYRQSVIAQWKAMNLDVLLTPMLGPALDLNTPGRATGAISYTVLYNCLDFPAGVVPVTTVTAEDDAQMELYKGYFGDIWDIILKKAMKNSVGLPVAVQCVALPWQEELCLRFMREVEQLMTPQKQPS
Briefly: Determination of FAAH inhibitory activity in rat (rat brain membrane preparations, [3H]-anandamide hydrolysis). Type of test: biochemical. The following applies: rat brain membrane preparations; for inhibition at 0.1 µM: 100 nM test substance, read-out: FAAH Inhibition, Inhibition Rate at 100 nM; for IC50: test substance 0.1 nM to 1 μM, read-out: FAAH Inhibition IC50. In short, it runs like this: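 Rat cerebrum membranes (100 μg/mL protein) preincubated 10 min at 37 °C with compound (1% DMSO) in pH 7.6 Tris buffer with 1.5% BSA. Substrate 2 nM [3H]-anandamide plus 2 μM anandamide added for 10 min at 37 °C. [3H]-ethanolamine in the aqueous phase after chloroform/methanol extraction was scintillation counted; IC50 over 0.1 nM–1 μM.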

Where a name gives a salt, the structure may show the parent alone. A value given as a limit tells only on which side of the number the result lay.

For `COCCCc1ncc2c(n1)n(C)c(=O)n2C(=O)N1CC(c2ccccc2)C1` [Example 383], the inhibition at 0.1 µM came to 65% and the half-maximal inhibitory concentration (IC50) is 14 nM.

Take `COCCCc1ncc2c(n1)n(C)c(=O)n2C(=O)N1CC(Oc2ccccc2)C1` [Example 384]: the inhibition at 0.1 µM was 8% and the IC50 is more than 100 nM.

On to `CCOc1ccc(C2CN(C(=O)n3c(=O)n(C)c4nc(CCCOC)ncc43)C2)cc1` [Example 385], for which the inhibition at 0.1 µM worked out at 99% and the IC50 was 5 nM.

Consider `COCCCc1ncc2c(n1)n(C)c(=O)n2C(=O)N1CC(c2cccc(C(F)(F)F)c2)C1` [Example 386], for which the inhibition at 0.1 µM was determined as 93% and the IC50 was found to be 7 nM.

Regarding `CCOc1cccc(C2CN(C(=O)n3c(=O)n(C)c4nc(CCCOC)ncc43)C2)c1` [Example 387], the inhibition at 0.1 µM was found to be 92% and the IC50 turned out to be 22 nM.

With `COCCc1ncc2c(n1)n(C)c(=O)n2C(=O)N1CC(c2ccc(C(F)(F)F)cc2)C1` [Example 388, 2-(2-methoxyethyl)-9-methyl-7-({3-[4-(trifluoromethyl)phenyl]azetidin-1-yl}carbonyl)-7,9-dihydro-8H-purine-8-one hydrochloric acid salt], the inhibition at 0.1 µM came to 100% and the IC50 was determined as 5 nM.

In the case of `CN(C)C(=O)n1c(=O)n(C)c2cnc(CCCOc3ccc(C(F)(F)F)cc3)nc21` [Example 394, N,N,7-trimethyl-8-oxo-2-{3-[4-(trifluoromethyl)phenoxy]propyl}-7,8-dihydro-9H-purine-9-carboxamide hydrochloric acid salt], the inhibition at 0.1 µM was 94% and the IC50 came to 7 nM.

Regarding `CN(C)C(=O)n1c(=O)n(C)c2cnc(CCCOc3cccc(F)c3)nc21` [Example 395], the inhibition at 0.1 µM was 78% and the IC50 is 32 nM.

Regarding `Cc1ccc(OCCCc2ncc3c(n2)n(C(=O)N(C)C)c(=O)n3C)cc1` [Example 396], the inhibition at 0.1 µM was 52% and the concentration for half-maximal inhibition (IC50) was determined as 78 nM.

For the molecule `Cc1cccc(OCCCc2ncc3c(n2)n(C(=O)N(C)C)c(=O)n3C)c1` [Example 397], the inhibition at 0.1 µM turned out to be 76% and the IC50 turned out to be 32 nM.

With `CN(C)C(=O)n1c(=O)n(C)c2cnc(CCCOc3ccc(F)cc3)nc21` [Example 398], the inhibition at 0.1 µM worked out at 84% and the IC50 was 9 nM.

For the molecule `CN(C)C(=O)n1c(=O)n(C)c2cnc(CCCOc3cccc(C(F)(F)F)c3)nc21` [Example 399], the inhibition at 0.1 µM came to 95% and the half-inhibitory concentration (IC50) was determined as 6 nM.

On to `Cn1c(=O)n(C(=O)N2CCC2)c2nc(CCCOc3ccccc3)ncc21` [Example 400], for which the inhibition at 0.1 µM is 88% and the IC50 was 98 nM.

In the case of `Cn1c(=O)n(C(=O)N2CCC2)c2nc(CCCOc3ccc(F)cc3)ncc21` [Example 401, 9-(Azetidin-1-ylcarbonyl)-2-[3-(4-fluorophenoxy)propyl]-7-methyl-7,9-dihydro-8H-purine-8-one], the inhibition at 0.1 µM came to 99% and the IC50 was found to be 9 nM.

`Cn1c(=O)n(C(=O)N2CCC2)c2cnc(COc3ccc(F)cc3)nc21` [Example 402, 7-(azetidin-1-ylcarbonyl)-2-[(4-fluorophenoxy)methyl]-9-methyl-7,9-dihydro-8H-purine-8-one]: the inhibition at 0.1 µM was found to be 103% and the IC50 came to 10 nM.

In the case of `COc1cccc(OCc2ncc3c(n2)n(C)c(=O)n3C(=O)N2CCC2)c1` [Example 404, 7-(Azetidin-1-ylcarbonyl)-2-[(3-methoxyphenoxy)methyl]-9-methyl-7,9-dihydro-8H-purine-8-one], the inhibition at 0.1 µM came to 96% and the IC50 amounted to 10 nM.

Take `CCc1cccc(OCc2ncc3c(n2)n(C(=O)N(C)C)c(=O)n3C)c1` [Example 413]: the inhibition at 0.1 µM was 98% and the IC50 amounted to 3 nM.

For the molecule `CN(C)C(=O)n1c(=O)n(C)c2cnc(COc3cccc(Cl)c3)nc21` [Example 414], the inhibition at 0.1 µM stood at 84% and the IC50 came out at 64 nM.
